In patent publication US9051304B2, “Carboxamide compounds and their use as calpain inhibitors V” (AbbVie Deutschland GmbH & Co. KG, priority 2009, dated 2015):

Legend:
[1] = biological target: T1, calpain-I isolated from human erythrocytes (Homo sapiens, UniProt P07384); experiment: Calpain I enzyme inhibition, kinetic fluorescence assay; format: biochemical; settings: apparent Ki from IC50 by Cheng-Prussoff; human erythrocyte calpain-I
T1 construct: calpain-I—isolated from human erythrocytes; purchased Calbiochem 208713; host or cells: human erythrocytes (tissue isolate)
T1 sequence (P07384 1-714): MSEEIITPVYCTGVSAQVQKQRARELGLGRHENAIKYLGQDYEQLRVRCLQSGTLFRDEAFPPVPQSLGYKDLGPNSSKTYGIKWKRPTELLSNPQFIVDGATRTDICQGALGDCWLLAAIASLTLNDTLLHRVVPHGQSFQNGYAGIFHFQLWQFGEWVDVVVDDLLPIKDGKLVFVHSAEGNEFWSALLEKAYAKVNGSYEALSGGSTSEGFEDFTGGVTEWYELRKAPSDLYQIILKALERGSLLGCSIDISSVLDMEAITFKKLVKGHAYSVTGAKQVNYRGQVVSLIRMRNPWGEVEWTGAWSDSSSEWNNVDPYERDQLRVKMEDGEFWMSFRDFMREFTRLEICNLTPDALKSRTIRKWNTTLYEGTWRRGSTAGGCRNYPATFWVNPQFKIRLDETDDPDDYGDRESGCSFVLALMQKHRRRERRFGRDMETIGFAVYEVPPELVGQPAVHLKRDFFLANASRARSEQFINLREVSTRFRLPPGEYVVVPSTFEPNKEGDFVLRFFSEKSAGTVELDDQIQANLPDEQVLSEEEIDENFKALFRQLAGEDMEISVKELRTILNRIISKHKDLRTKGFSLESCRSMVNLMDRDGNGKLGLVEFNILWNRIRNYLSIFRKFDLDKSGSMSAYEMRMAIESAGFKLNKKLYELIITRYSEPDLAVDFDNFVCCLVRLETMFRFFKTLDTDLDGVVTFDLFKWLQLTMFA
T1 sequence (P04632 1-268 partner): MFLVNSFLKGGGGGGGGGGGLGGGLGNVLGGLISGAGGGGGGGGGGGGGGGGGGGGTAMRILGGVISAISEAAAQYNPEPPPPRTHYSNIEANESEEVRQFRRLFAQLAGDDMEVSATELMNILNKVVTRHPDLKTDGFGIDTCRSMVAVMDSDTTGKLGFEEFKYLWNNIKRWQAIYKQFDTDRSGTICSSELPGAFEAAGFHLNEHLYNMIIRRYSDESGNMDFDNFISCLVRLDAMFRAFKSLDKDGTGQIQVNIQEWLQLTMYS
Method: (§1) I Enzyme Inhibition in vitro:
(§2) Testing for blockade of the corresponding enzymic activities was carried out by means of kinetic fluorescence assays (excitation 390 nm, emission 460 nm).
(§3) Apparent Ki values were calculated from the experimentally determined IC50 values by the Cheng-Prussoff relation assuming a reversible competitive enzyme inhibition.
20 nM calpain-I—isolated from human erythrocytes (Calbiochem #208713), 100 μM Suc-Leu-Tyr-AMC (Bachem #I-1355) as substrate in buffer with 62 mM imidazole, 0.3 mM CaCl2, 0.10% CHAPS, 0.05% BSA, 1 mM DTT at pH 7.3 and room temperature.

[2] = biological target: T2, cathepsin B isolated from human liver (Homo sapiens, UniProt P07858); experiment: Cathepsin B enzyme inhibition, kinetic fluorescence assay; format: biochemical; settings: selectivity ratio vs calpain
T2 construct: cathepsin B—isolated from human liver; purchased Calbiochem 219362; host or cells: human liver (tissue isolate)
Method: as §1, §2, §3
0.25 nM cathepsin B—isolated from human liver (Calbiochem #219362), 100 μM Z-Phe-Arg-AMC (Bachem #I-1160) as substrate 50 mM MES, 2 mM EDTA, 0.05% Brij 35, 2.5 mM L-cysteine, pH 6.0, room temperature.

[3] = biological target: T3, cathepsin K activated from recombinant human procathepsin K (Homo sapiens, UniProt P43235); experiment: Cathepsin K enzyme inhibition, kinetic fluorescence assay; format: biochemical; settings: selectivity ratio vs calpain
T3 construct: purchased Calbiochem 342001; host or cells: E. coli
T3 sequence (P43235 115-329): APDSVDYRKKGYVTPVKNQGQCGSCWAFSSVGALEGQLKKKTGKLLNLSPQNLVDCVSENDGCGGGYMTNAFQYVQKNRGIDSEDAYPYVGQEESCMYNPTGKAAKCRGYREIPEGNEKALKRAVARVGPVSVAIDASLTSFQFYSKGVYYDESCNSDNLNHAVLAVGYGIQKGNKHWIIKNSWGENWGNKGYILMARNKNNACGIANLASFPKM
Method: as §1, §2, §3
3 nM cathepsin K—activated from recombinant human procathepsin K from E. coli (Calbiochem #342001), 10 μM Z-Gly-Pro-Arg-AMC (Biomol #P-142) as substrate in 50 mM MES, 2 mM EDTA, 0.05% Brij 35, 2.5 mM L-cysteine, pH 6.0, room temperature.

[4] = biological target: T4, cathepsin L isolated from human liver (Homo sapiens, UniProt P07711); experiment: Cathepsin L enzyme inhibition, kinetic fluorescence assay; format: biochemical; settings: selectivity ratio vs calpain
T4 construct: cathepsin L—isolated from human liver; purchased Calbiochem 219402; host or cells: human liver (tissue isolate)
Method: as §1, §2, §3
1 nM cathepsin L—isolated from human liver (Calbiochem #219402), 2 μM Z-Phe-Arg-AMC (Bachem #I-1160) as substrate in 50 mM MES, 2 mM EDTA, 0.05% Brij 35, 2.5 mM L-cysteine, pH 6.0, room temperature.

[5] = biological target: T5, recombinant human cathepsin S (Homo sapiens, UniProt P25774); experiment: Cathepsin S enzyme inhibition, kinetic fluorescence assay; format: biochemical; settings: selectivity ratio vs calpain
T5 construct: purchased Calbiochem 219343; host or cells: E. coli
Method: as §1, §2, §3
0.5 nM recombinant human cathepsin S from E. coli (Calbiochem #219343), 20 μM Z-Val-Val-Arg-AMC (Bachem #I-1540) as substrate in 50 mM MES, 2 mM EDTA, 0.05% Brij 35, 2.5 mM L-cysteine, pH 6.0, room temperature.

[6] = Cytosolic clearance in human liver cytosol; format: in vitro ADME; settings: 0.5 μM compound, 1 mg/ml human liver cytosol, 37° C., pH 7.5; read-out: human cytCL (cytosolic clearance)
Method: (§4) III Assay for Determining Cytosolic Clearance of Compounds of Formula I: […]
(§5) For comparison purposes data measured with human liver cytosol were contrasted with those obtained with cynomolgus monkey liver cytosol.
(§6) 0.5 μM of a compound to be tested was incubated with 1 mg/ml of human liver cytosol as well as monkey liver cytosol at 37° C. in 0.5 M of phosphate buffer at pH 7.5 while shaking (commercial sources: female cynomolgus liver cytosol from Tebu bio, human liver cytosol from BDgentest).
(§7) In each case aliquots of 65 μl were taken after 0, 5, 10 and 15 min and transferred into wells of a wellplate which were immediately filled with 130 μl of ethanol to stop the reaction. The samples were kept frozen until analysis on a LC/MS/MS system (Applied Biosystems SCIEX 4000).
(§8) Read out parameters were the loss of parent compounds, from which the half life periods (T1/2) were calculated from.
(§9) To assess the stability of the compounds tested the clearance ranges were adjusted to the hepatic plasma flow of the different species according to the following scheme:
(§10) stable=from 0 to about ⅓ of the hepatic plasma flow;
(§11) moderately stable=from about ⅓ to about ⅔ of the hepatic plasma flow;
(§12) instable=more than ⅔ of the hepatic plasma flow.
(§13) Based on this adjustment the following qualifiers were assigned to evaluate the cytosolic stabilities of the compounds tested: […]

[7] = Cytosolic clearance in cynomolgus monkey liver cytosol; format: in vitro ADME; settings: female; 0.5 μM compound, 1 mg/ml cynomolgus monkey liver cytosol, 37° C., pH 7.5; read-out: cyno cytCL (cytosolic clearance)
Method: as §4, §5, §6, §7, §8, §9, §10, §11, §12, §13

T5 sequence (P25774 115-331): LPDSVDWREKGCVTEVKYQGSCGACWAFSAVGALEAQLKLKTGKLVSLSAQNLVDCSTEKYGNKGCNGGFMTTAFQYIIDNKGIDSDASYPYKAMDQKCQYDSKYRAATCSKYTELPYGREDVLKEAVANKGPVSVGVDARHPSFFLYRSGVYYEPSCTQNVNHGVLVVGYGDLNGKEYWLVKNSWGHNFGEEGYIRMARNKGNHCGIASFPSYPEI
T4 sequence (P07711 114-333): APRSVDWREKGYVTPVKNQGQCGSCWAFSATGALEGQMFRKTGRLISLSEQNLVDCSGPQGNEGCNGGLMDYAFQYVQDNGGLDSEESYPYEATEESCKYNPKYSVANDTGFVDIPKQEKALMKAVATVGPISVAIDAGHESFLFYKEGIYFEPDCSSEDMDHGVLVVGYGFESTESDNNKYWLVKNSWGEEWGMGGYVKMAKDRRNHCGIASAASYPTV

| SMILES | Ki [1] [nM] | Sel cat. B (Ki(cathepsin B)/Ki(calpain) ratio) [2] | Sel cat. K (Ki(cathepsin K)/Ki(calpain) ratio) [3] | Sel cat. L (Ki(cathepsin L)/Ki(calpain) ratio) [4] | Sel cat. S (Ki(cathepsin S)/Ki(calpain) ratio) [5] | cytosolic intrinsic clearance at 0.5 μM [6] [µL/min/mg] | cytosolic intrinsic clearance at 0.5 μM [7] [µL/min/mg] | Calpain activity (Ki(calpain)) [1] |
| --- | --- | --- | --- | --- | --- | --- | --- | --- |
| CCONC(=O)C(=O)C(Cc1ccccc1)NC(=O)c1cccnc1-n1ccc(-c2ccccc2)n1 (centres unmarked) [Example 7, N-(4-(Ethoxyamino)-3,4-dioxo-1-phenylbutan-2-yl)-2-(3-phenyl-1H-pyrazol-1-yl)nicotinamide] | < 200 | ++ (++ means 4<Ki(cathepsin B)/Ki(calpain)≦10) | + (+ means 2≦Ki(cathepsin K)/Ki(calpain)≦4) | ++ (++ means 10<Ki(cathepsin L)/Ki(calpain)≦50) | +++ (+++ means a Ki(cathepsin S)/Ki(calpain) ratio of >50) | < 14 | < 18 |  |
| CC(C)(C)ONC(=O)C(=O)C(Cc1ccccc1)NC(=O)c1cccnc1-n1ccc(-c2ccccc2)n1 (centres unmarked) [Example 16, N-(4-{[(2-Methyl-2-propanyl)oxy]amino}-3,4-dioxo-1-phenyl-2-butanyl)-2-(3-phenyl-1H-pyrazol-1-yl)nicotinamide] | 300 to 600 | +++ (+++ means a Ki(cathepsin B)/Ki(calpain) ratio of >10) | ∘ | + (+ means 5≦Ki(cathepsin L)/Ki(calpain)≦10) | ++ (++ means 10<Ki(cathepsin S)/Ki(calpain)≦50) |  |  |  |
| CC(C)(C)CONC(=O)C(=O)C(Cc1ccccc1)NC(=O)c1cccnc1-n1ccc(-c2ccccc2)n1 (centres unmarked) [Example 21, N-{4-[(2,2-Dimethylpropoxy)amino]-3,4-dioxo-1-phenyl-2-butanyl}-2-(3-phenyl-1H-pyrazol-1-yl)nicotinamide] | 200 to 300 | + (+ means 2≦Ki(cathepsin B)/Ki(calpain)≦4) | ∘ | ∘ | + (+ means 5≦Ki(cathepsin S)/Ki(calpain)≦10) |  |  |  |
| CCONC(=O)C(=O)C(Cc1ccc(OC)cc1)NC(=O)c1cccnc1-n1ccc(-c2ccccc2)n1 (centres unmarked) [Example 24, N-[4-(Ethoxyamino)-1-(4-methoxyphenyl)-3,4-dioxo-2-butanyl]-2-(3-phenyl-1H-pyrazol-1-yl)nicotinamid] | < 200 | ++ (++ means 4<Ki(cathepsin B)/Ki(calpain)≦10) | + (+ means 2≦Ki(cathepsin K)/Ki(calpain)≦4) | ++ (++ means 10<Ki(cathepsin L)/Ki(calpain)≦50) | ++ (++ means 10<Ki(cathepsin S)/Ki(calpain)≦50) |  |  |  |
| CCONC(=O)C(=O)C(Cc1ccccc1)NC(=O)[C@H]1CCC(=O)N1Cc1ccccc1 (stereo partly drawn) [Example 29, (2R)-1-benzyl-N-(4-(ethoxyamino)-3,4-dioxo-1-phenylbutan-2-yl)-5-oxopyrrolidine-2-carboxamide] |  | +++ (+++ means a Ki(cathepsin B)/Ki(calpain) ratio of >10) | ++ (++ means 4<Ki(cathepsin K)/Ki(calpain)≦10) | ++ (++ means 10<Ki(cathepsin L)/Ki(calpain)≦50) | ++ (++ means 10<Ki(cathepsin S)/Ki(calpain)≦50) |  |  | ∘ |
| O=C(NOCC1CC1)C(=O)C(Cc1ccccc1)NC(=O)[C@H]1CCC(=O)N1Cc1ccccc1 (stereo partly drawn) [Example 31, (2R)-1-benzyl-N-(4-(cyclopropylmethoxyamino)-3,4-dioxo-1-phenylbutan-2-yl)-5-oxopyrrolidine-2-carboxamide] | < 200 | + (+ means 2≦Ki(cathepsin B)/Ki(calpain)≦4) | ∘ | ∘ | ++ (++ means 10<Ki(cathepsin S)/Ki(calpain)≦50) |  |  |  |
